The record followed here is patent publication US7973083B2, “Pesticidally active compounds” (priority 2003, dated 2011).

What all share (type): in vivo
One data set relates to Sweet Corn ‘Jubilee SS. Description: Field test, sweet corn phytotoxicity after herbicide with or without insecticide (Table I). As to conditions: scale 0-100. The procedure: (§1) Field tests were conducted in the following way: Corn was seeded with standard sowing implements and grown under natural conditions until the 2-3 leaf stage of corn was reached. Corn with or without insecticide treatments applied at seeding was grown at the same time. At 2-3 leaf stage, the herbicides only or in combination with the insecticide, if the insecticide has not been applied at seeding, was applied broadcast foliar over the top. At highest phytotoxicity levels for corn at five days after application and at maximal weed control levels at 16 days after application, the trial was evaluated.

The test system of the next data set is Amaranthus retroflexus. Description: Field test, weed control (Table I). The settings on record: scale 0-100. The protocol:
as §1

The subject of another data set is Corn ‘NK58D1. Description: Field test, corn phytotoxicity after herbicide with or without insecticide (Table I). As to conditions: scale 0-100. The protocol:
as §1

The next data set concerns Corn Cecilia. As to the kind of experiment: Glasshouse test, insecticide pre-plant incorporated followed by post application of herbicide, corn phytotoxicity (Table 2). The settings on record: no insecticide, 20 days after last application. From the text:
(§2) Insecticide Pre-Plant Incorporated Followed by Post Application of the Herbicide
(§3) Prior to the planting of corn and weed, the substrate was filled into plastic pots and the different insecticides were applied with glasshouse spray equipment on bare soil at rates indicated in the results table. After the insecticide application, the substrate in the pots was mixed up in order to get an even distribution of the insecticide throughout the pot Crop and weed were planted following this procedure and grown under standard glasshouse conditions allowing optimal plant growth until 2-3 leaf stage. Then the herbicides were applied according to the rates indicated in the results table post emergent foliar over the top including standard adjuvants. The plants were visually evaluated on a scale of 0-100% wherein 0% indicated no phytotoxicity and 100% indicated full control or death. 0-15% indicates acceptable crop tolerance, 85-100% acceptable weed control. The evaluation was done at the time when maximal phytotoxicity or activity occurred.

Data set [1] has as its system Solanum Nigrum. Description: Glasshouse test, insecticide and herbicide tank-mixed post emergent, weed control (Table 3). As to conditions: no insecticide, 34 days after last application.
Description: (§4) Insecticide and Herbicide Applied Tank-Mixed Post Emergent
as §3, with “pots.” for “pots and the different insecticides were applied with glasshouse spray equipment on bare soil at rates indicated in the results table. After the insecticide application, the substrate in the pots was mixed up in order to get an even distribution of the insecticide throughout the pot”, “according” for “according to”

The subject of data set [2] is Solanum Nigrum. As to the kind of experiment: Glasshouse test, insecticide pre-plant incorporated followed by post application of herbicide, weed control (Table 2). The settings on record: no insecticide, 43 days after last application.
Description: as §2, §3

A further data set deals with Corn Sweet honeycomb. As to the kind of experiment: Glasshouse test, insecticide and herbicide tank-mixed post emergent, corn phytotoxicity (Table 3). The settings on record: no insecticide, 8 days after last application.
Description: as §4
as §3, with “pots.” for “pots and the different insecticides were applied with glasshouse spray equipment on bare soil at rates indicated in the results table. After the insecticide application, the substrate in the pots was mixed up in order to get an even distribution of the insecticide throughout the pot”, “according” for “according to”

Where [3] appears, read: insecticide alone, in furrow at seeding 11.2 GA/100 Row M, 5 days.
Where [4] appears, read: insecticide alone, post 1120 GA/Ha, 5 days.
The mark [5] stands for this setting: insecticide alone, in furrow at seeding 11.2 GA/100 Row M, 16 days.
[6] abbreviates: herbicide post 400 GA/Ha, scale 0-100.
Where [7] appears, read: herbicide post, mesotrione 210 GA/Ha (a.e. for Cu), no insecticide, 5 days after last application.

Structures are written as SMILES.

In the case of `CCOP(=S)(OCC)Oc1nc(Cl)c(Cl)cc1Cl` [Chlorpyrifos], the Phytotox. with Sweet Corn ‘Jubilee SS (setting [3]), with Sweet Corn ‘Jubilee SS (setting [4]), in the data set on Corn ‘NK58D1 (setting [3]) and in the data set with Corn ‘NK58D1 (setting [4]) was 0% in each case. Also, the “Weed Control” value with Amaranthus retroflexus (setting [5]) came out at 0%; in the data set on Amaranthus retroflexus (insecticide alone, post 1120 GA/Ha, 16 days), 0%.
In the case of `CS(=O)(=O)c1ccc(C(=O)C2C(=O)CCCC2=O)c([N+](=O)[O-])c1` [Mesotrione, 2-(2′-nitro-4′-methylsulphonylbenzoyl)-1,3-cyclohexanedione], the Phytotox. with Corn Cecilia (herbicide post 100 GA/Ha) is 5%; with Corn Cecilia (herbicide post 200 GA/Ha) it was 0%; in the data set with Corn Cecilia (setting [6]) it was 0%; with Sweet Corn ‘Jubilee SS (herbicide post, mesotrione 105 GA/Ha (a.e. for Cu), no insecticide, 5 days after last application), 16.3%; in the data set on Sweet Corn ‘Jubilee SS (setting [7]), 15%; with Corn Sweet honeycomb (herbicide post 100 GA/Ha) it was 10%. The Phytotox. in the data set on Corn Sweet honeycomb (herbicide post 200 GA/Ha) is on record as 20%; in the data set on Corn Sweet honeycomb (setting [6]) it was 20%; in the data set with Corn ‘NK58D1 (herbicide post, mesotrione 105 GA/Ha (a.e. for Cu), no insecticide, 5 days after last application, COC 1% V/V + UAN 2.5% V/V), 3.8%; with Corn ‘NK58D1 (setting [7]), 8.8%. For the same compound, the “Weed Control” value is reported as 100% in the data set with Solanum Nigrum [1] (herbicide post 100 GA/Ha); 100% with Solanum Nigrum [1] (herbicide post 200 GA/Ha); 100% in the data set on Solanum Nigrum [1] (setting [6]); 98% in the data set on Solanum Nigrum [2] (herbicide post 100 GA/Ha); 100% with Solanum Nigrum [2] (herbicide post 200 GA/Ha); 0% in the data set with Solanum Nigrum [2] (setting [6]). Further, the “Weed Control” value with Amaranthus retroflexus (herbicide post, mesotrione 105 GA/Ha (a.e. for Cu), no insecticide, 16 days after last application) is listed as 90%; in the data set with Amaranthus retroflexus (herbicide post, mesotrione 210 GA/Ha (a.e. for Cu), no insecticide, 16 days after last application) it was 95%.
As for `CCOP(=S)(OCC)SCSC(C)(C)C` [Terbufos], the Phytotox. in the data set with Sweet Corn ‘Jubilee SS (setting [3]) and with Corn ‘NK58D1 (setting [3]) was 0% each time. The “Weed Control” value in the data set with Amaranthus retroflexus (setting [5]) was found to be 0%.
